Measurements reported in patent US7517874B2 (priority 2007, dated 2009).

What was measured:
[1] = target: T1, rat CB2 receptor (rCB2) (Rattus norvegicus, UniProt Q9QZN9); experiment: cell-based; assay type: cell-based; conditions: for +/− RCB2: agonist or inverse agonist at rCB2
T1 sequence (Q9QZN9 1-360): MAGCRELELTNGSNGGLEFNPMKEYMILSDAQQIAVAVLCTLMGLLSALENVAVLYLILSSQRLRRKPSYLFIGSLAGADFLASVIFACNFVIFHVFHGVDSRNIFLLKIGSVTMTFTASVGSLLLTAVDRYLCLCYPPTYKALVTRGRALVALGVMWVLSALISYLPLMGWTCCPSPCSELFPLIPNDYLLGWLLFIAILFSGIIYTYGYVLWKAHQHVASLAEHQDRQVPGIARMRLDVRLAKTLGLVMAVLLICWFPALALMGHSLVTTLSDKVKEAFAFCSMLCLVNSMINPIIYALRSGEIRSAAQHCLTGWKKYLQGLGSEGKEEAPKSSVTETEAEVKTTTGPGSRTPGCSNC
Outline: (§1)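 Agonism or inverse agonism was assessed as change in intracellular cAMP in CHO-K1 cells expressing human CB1 or rat CB2 (genomic DNA, pcDNA3.1).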

[2] = target: human CB1 receptor (hCB1) (Homo sapiens, UniProt P21554); experiment: cell-based; assay type: cell-based; conditions: for +/− HCB1: agonist or inverse agonist at hCB1
Chain of human CB1 receptor (hCB1) (P21554 whole entry): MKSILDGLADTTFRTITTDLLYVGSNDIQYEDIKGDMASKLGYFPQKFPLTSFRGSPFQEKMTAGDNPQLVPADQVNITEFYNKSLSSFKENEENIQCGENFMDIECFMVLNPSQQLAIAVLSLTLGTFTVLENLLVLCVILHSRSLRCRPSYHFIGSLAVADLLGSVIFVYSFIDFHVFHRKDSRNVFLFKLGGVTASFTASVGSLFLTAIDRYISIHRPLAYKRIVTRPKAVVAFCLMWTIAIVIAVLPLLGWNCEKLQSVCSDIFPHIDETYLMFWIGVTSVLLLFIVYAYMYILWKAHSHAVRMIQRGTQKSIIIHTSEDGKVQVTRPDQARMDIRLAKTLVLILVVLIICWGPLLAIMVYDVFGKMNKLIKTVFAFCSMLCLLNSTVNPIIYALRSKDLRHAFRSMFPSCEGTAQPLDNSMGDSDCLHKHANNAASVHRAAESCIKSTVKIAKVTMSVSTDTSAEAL
Outline: as §1

Compound	+/− RCB2 [1]	EC50 [2] [µM]	EC50 [1] [µM]	+/− HCB1 [2]
CNC(=O)[C@@H](NC(=O)c1nc(-c2ccc(F)c(C#N)c2)n2c1CN(C)CCC2)C(C)(C)C [Compound 425, (S)-3-(3-cyano-4-fluorophenyl)-N-(3,3-dimethyl-1-(methylamino)-1-oxobutan-2-yl)-8-methyl-6,7,8,9-tetrahydro-5H-imidazo[1,5-a][1,4]diazepine-1-carboxamide]	+	> 10		
CNC(=O)[C@@H](NC(=O)c1nc(-c2ccc(C(=O)N(C)C)c(F)c2)n2c1CN(C)CCC2)C(C)(C)C [Compound 426, (S)-N-(3,3-dimethyl-1-(methylamino)-1-oxobutan-2-yl)-3-(4-(dimethylcarbamoyl)-3-fluorophenyl)-8-methyl-6,7,8,9-tetrahydro-5H-imidazo[1,5-a][1,4]diazepine-1-carboxamide]		> 10	> 10	
CNC(=O)[C@@H](NC(=O)c1nc(-c2ccc(C(N)=O)c(F)c2)n2c1CN(C)CCC2)C(C)(C)C [Compound 427, (S)-3-(4-carbamoyl-3-fluorophenyl)-N-(3,3-dimethyl-1-(methylamino)-1-oxobutan-2-yl)-8-methyl-6,7,8,9-tetrahydro-5H-imidazo[1,5-a][1,4]diazepine-1-carboxamide]		> 10	> 10	
CNC(=O)[C@@H](NC(=O)c1nc(-c2ccc(C3CC(=O)NN3)cc2)n2c1CN(C)CCC2)C(C)(C)C (stereo partly drawn) [Compound 428, N-((S)-3,3-dimethyl-1-(methylamino)-1-oxobutan-2-yl)-8-methyl-3-(4-(5-oxopyrazolidin-3-yl)phenyl)-6,7,8,9-tetrahydro-5H-imidazo[1,5-a][1,4]diazepine-1-carboxamide]		> 10	> 10	
CNC(=O)[C@@H](NC(=O)c1nc(-c2ccc(F)c(C(N)=O)c2)n2c1CN(C)CCC2)C(C)(C)C [Compound 429, (S)-3-(3-carbamoyl-4-fluorophenyl)-N-(3,3-dimethyl-1-(methylamino)-1-oxobutan-2-yl)-8-methyl-6,7,8,9-tetrahydro-5H-imidazo[1,5-a][1,4]diazepine-1-carboxamide]	+	> 10		
C=Cc1nc(C(=O)N[C@H](C(=O)NC)C(C)(C)C)c2n1CCCN(C)C2 [Compound 430, (S)-N-(3,3-dimethyl-1-(methylamino)-1-oxobutan-2-yl)-8-methyl-3-vinyl-6,7,8,9-tetrahydro-5H-imidazo[1,5-a][1,4]diazepine-1-carboxamide]	+	> 10		
CNC(=O)[C@@H](NC(=O)c1nc(-c2ccccc2C(N)=O)n2c1CN(C)CCC2)C(C)(C)C [Compound 431, (S)-3-(2-carbamoylphenyl)-N-(3,3-dimethyl-1-(methylamino)-1-oxobutan-2-yl)-8-methyl-6,7,8,9-tetrahydro-5H-imidazo[1,5-a][1,4]diazepine-1-carboxamide]		> 10	> 10	
CNC(=O)[C@@H](NC(=O)c1nc(-c2cn[nH]c2)n2c1CN(C)CCC2)C(C)(C)C [Compound 432, (S)-N-(3,3-dimethyl-1-(methylamino)-1-oxobutan-2-yl)-8-methyl-3-(1H-pyrazol-4-yl)-6,7,8,9-tetrahydro-5H-imidazo[1,5-a][1,4]diazepine-1-carboxamide]	+	> 10		
CNC(=O)[C@@H](NC(=O)c1nc(-c2cccc(Cl)c2)n2c1CN(C)CCC2)C(C)(C)C [Compound 433, (S)-3-(3-chlorophenyl)-N-(3,3-dimethyl-1-(methylamino)-1-oxobutan-2-yl)-8-methyl-6,7,8,9-tetrahydro-5H-imidazo[1,5-a][1,4]diazepine-1-carboxamide]		> 10	> 10	
CCC/C=C/c1nc(C(=O)N[C@H](C(=O)NC)C(C)(C)C)c2n1CCCN(C)C2 [Compound 434, (S,E)-N-(3,3-dimethyl-1-(methylamino)-1-oxobutan-2-yl)-8-methyl-3-(pent-1-enyl)-6,7,8,9-tetrahydro-5H-imidazo[1,5-a][1,4]diazepine-1-carboxamide]	+	> 10		
CNC(=O)[C@@H](NC(=O)c1nc(C2CC2)n2c1CN(C)CCC2)C(C)(C)C [Compound 435, (S)-3-cyclopropyl-N-(3,3-dimethyl-1-(methylamino)-1-oxobutan-2-yl)-8-methyl-6,7,8,9-tetrahydro-5H-imidazo[1,5-a][1,4]diazepine-1-carboxamide]	+	> 10		
CNC(=O)[C@@H](NC(=O)c1nc(/C=C/C2CC2)n2c1CN(C)CCC2)C(C)(C)C [Compound 436, (S,E)-3-(2-cyclopropylvinyl)-N-(3,3-dimethyl-1-(methylamino)-1-oxobutan-2-yl)-8-methyl-6,7,8,9-tetrahydro-5H-imidazo[1,5-a][1,4]diazepine-1-carboxamide]	+			+
CNC(=O)[C@@H](NC(=O)c1nc(-c2ccc(F)cc2)n2c1CN(C)CCC2)C(C)(C)C [Compound 437, (S)-N-(3,3-dimethyl-1-(methylamino)-1-oxobutan-2-yl)-3-(4-fluorophenyl)-8-methyl-6,7,8,9-tetrahydro-5H-imidazo[1,5-a][1,4]diazepine-1-carboxamide]		> 10	> 10	
CNC(=O)[C@@H](NC(=O)c1nc(-c2cccc(C(F)(F)F)c2)n2c1CN(C)CCC2)C(C)(C)C [Compound 438, (S)-N-(3,3-dimethyl-1-(methylamino)-1-oxobutan-2-yl)-8-methyl-3-(3-(trifluoromethyl)phenyl)-6,7,8,9-tetrahydro-5H-imidazo[1,5-a][1,4]diazepine-1-carboxamide]	−	> 10		
CNC(=O)[C@@H](NC(=O)c1nc(/C=C/C2CCCCC2)n2c1CN(C)CCC2)C(C)(C)C [Compound 439]	+	> 10		
CNC(=O)[C@@H](NC(=O)c1nc(-c2ccoc2)n2c1CN(C)CCC2)C(C)(C)C [Compound 440, (S)-N-(3,3-dimethyl-1-(methylamino)-1-oxobutan-2-yl)-3-(furan-3-yl)-8-methyl-6,7,8,9-tetrahydro-5H-imidazo[1,5-a][1,4]diazepine-1-carboxamide]	+	> 10		
C=C(C)c1nc(C(=O)N[C@H](C(=O)NC)C(C)(C)C)c2n1CCCN(C)C2 [Compound 441, (S)-N-(3,3-dimethyl-1-(methylamino)-1-oxobutan-2-yl)-8-methyl-3-(prop-1-en-2-yl)-6,7,8,9-tetrahydro-5H-imidazo[1,5-a][1,4]diazepine-1-carboxamide]	+			+
CNC(=O)[C@@H](NC(=O)c1nc(-c2c(C)noc2C)n2c1CN(C)CCC2)C(C)(C)C [Compound 442, N-((S)-3,3-dimethyl-1-(methylamino)-1-oxobutan-2-yl)-3-(3,5-dimethylisoxazol-4-yl)-8-methyl-6,7,8,9-tetrahydro-5H-imidazo[1,5-a][1,4]diazepine-1-carboxamide]	+			+
CNC(=O)[C@@H](NC(=O)c1nc(-c2ccc(C)o2)n2c1CN(C)CCC2)C(C)(C)C [Compound 443, (S)-N-(3,3-dimethyl-1-(methylamino)-1-oxobutan-2-yl)-8-methyl-3-(5-methylfuran-2-yl)-6,7,8,9-tetrahydro-5H-imidazo[1,5-a][1,4]diazepine-1-carboxamide]	−	> 10		
CNC(=O)[C@@H](NC(=O)c1nc(-c2cccc3cccnc23)n2c1CN(C)CCC2)C(C)(C)C [Compound 444]	−	> 10		
CNC(=O)[C@@H](NC(=O)c1nc(/C=C/CC2CCCC2)n2c1CN(C)CCC2)C(C)(C)C [Compound 445, (S,E)-3-(3-cyclopentylprop-1-enyl)-N-(3,3-dimethyl-1-(methylamino)-1-oxobutan-2-yl)-8-methyl-6,7,8,9-tetrahydro-5H-imidazo[1,5-a][1,4]diazepine-1-carboxamide]	−	> 10		
CNC(=O)[C@@H](NC(=O)c1nc(/C=C/c2ccsc2)n2c1CN(C)CCC2)C(C)(C)C [Compound 446]	+	> 10		
CNC(=O)[C@@H](NC(=O)c1nc(-c2cnn(C)c2)n2c1CN(C)CCC2)C(C)(C)C [Compound 447, (S)-N-(3,3-dimethyl-1-(methylamino)-1-oxobutan-2-yl)-8-methyl-3-(1-methyl-1H-pyrazol-4-yl)-6,7,8,9-tetrahydro-5H-imidazo[1,5-a][1,4]diazepine-1-carboxamide]	+			+
CNC(=O)[C@@H](NC(=O)c1nc(C2=CCC3(CC2)OCCO3)n2c1CN(C)CCC2)C(C)(C)C [Compound 448, (S)-N-(3,3-dimethyl-1-(methylamino)-1-oxobutan-2-yl)-8-methyl-3-(1,4-dioxaspiro[4.5]dec-7-en-8-yl)-6,7,8,9-tetrahydro-5H-imidazo[1,5-a][1,4]diazepine-1-carboxamide]	+			+
CNC(=O)[C@@H](NC(=O)c1nc(C2=CCC(C)CC2)n2c1CN(C)CCC2)C(C)(C)C (stereo partly drawn) [Compound 449, N-((S)-3,3-dimethyl-1-(methylamino)-1-oxobutan-2-yl)-8-methyl-3-(4-methylcyclohex-1-enyl)-6,7,8,9-tetrahydro-5H-imidazo[1,5-a][1,4]diazepine-1-carboxamide]	+			+
